# Reference: US20200207734A1, “HETEROCYCLIC COMPOUND AND USE THEREOF” (Takeda Pharmaceutical Company Limited, priority 2017, published 2020)
# Experiments:
# cynomolgus monkeys = test: Evaluation of wake-promoting effects in cynomolgus monkeys (EEG/EMG/EOG); format: in vivo; settings: 10 mg/kg, p.o., at ZT12, 4 h after administration, male cynomolgus monkeys, Mean, n = 4-8, cross-over design
# Method: The wake-promoting effects were evaluated by measuring the electroencephalogram (EEG), electromyogram (EMG) and electrooculogram (EOG) in cynomolgus monkeys. Under isoflurane anesthesia (1-5%, Pfizer Japan Inc., Tokyo, Japan), male cynomolgus monkeys (3-5 years old, Hamri Co., Ltd., Ibaraki, Japan) were surgically implanted with radio-telemetry transmitters (TL10M3-D70-EEE, Data Sciences International Inc., MN, USA). EEG leads were stereotaxically positioned at the parietal area and secured to the cranium with stainless-steel screws in contact with the dura. […] Bilateral EMG leads were implanted into the back cervical muscles. After the surgery, each monkey was given penicillin (100,000 units/head, i.m., Meiji Seika Pharma Co., Ltd., Tokyo, Japan), buprenorphine (0.02 mg/kg, i.m., Otsuka Pharmaceutical Co., Ltd., Tokyo, Japan) and prednisolone (1 mg/kg, s.c., Kyoritsu Seiyaku Co., Ltd., Tokyo, Japan) daily for one week. After at least a 1-month recovery period in home cages, the monkeys were habituated to the recording chamber (an acrylic cage 60W×55D×75H (cm)) located in a soundproof, electrically shielded room. After we confirmed that monkeys slept sufficiently in the experimental room, cortical EEG, EMG and EOG signals were recorded using Dataquest ART software (Data Sciences International Inc., MN, USA). The signals were semi automatically scored in 20 sec epochs by a sleep scoring system (SleepSign, Kissei Comtec Co., Ltd., Nagano, Japan). This preliminary scoring was visually inspected and corrected if necessary. Test compound (10 mg/kg, Table 4-1) suspended in 0.5% methylcellulose aqueous solution, or vehicle (i.e., 0.5% methylcellulose aqueous solution) was administered orally (p.o.) to monkeys at zeitgeber time 12 (ZT12) in a volume of 5 mL/kg body weight in a cross-over design. EEG, EMG and EOG recordings were performed for 4 h after the compound administration/treatments. The time spent in wakefulness for 4 h after administration (% of vehicle treatment) was calculated by using SleepSign. Test compound (1 mg/kg, Table 4-2) dissolved in a mixed solution comprising 5% DMSO, 5% Cremophor EL, 20% PEG400 and 70% soluplus (1% (w/v)), or vehicle (i.e., a mixed solution comprising 5% DMSO, 5% Cremophor EL, 20% PEG400 and 70% soluplus (1% (w/v))) was administered subcutaneously (s.c.) to monkeys at ZT12 in a volume of 0.5 mL/kg body weight in a pre-post design. EEG, EMG and EOG recordings were performed for 4 h after the compound administration/treatments. The time spent in wakefulness for 4 h after administration (% of vehicle treatment) was calculated by using SleepSign.
# [1] = Evaluation of microsome stability in human; format: in vitro ADME; settings: human liver microsomes 0.2 mg/mL, 1 μmol/L test compound, pH 7.4, NADPH-generating system, 15 and 30 min; read-out: Clearance (in vitro intrinsic metabolic clearance)
# Method: Human liver microsomes were purchased from Xenotech, LLC (Lenexa, Kans.). An incubation mixture consisted of microsomes in 50 mmol/L KH2PO4—K2HPO4 phosphate buffer (pH 7.4) and 1 μmol/L test compound. The concentration of microsomal protein was 0.2 mg/mL. An NADPH-generating system (5 mmol/L MgCl2, 5 mmol/L glucose-6-phosphate, 0.5 mmol/L beta-NADP+ and 1.5 unit/mL glucose-6-phosphate dehydrogenase) was added to the incubation mixture with a half volume of the reaction mixture to initiate the enzyme reaction. The reaction was terminated 15 and 30 minutes after the initiation of the reaction by mixing the reaction mixture with acetonitrile, followed by centrifugation at 2500 rpm for 10 min. The supernatant was subjected to LC/MS/MS analysis. The metabolic velocity was calculated as the slope of the concentration-time plot. The in vitro intrinsic metabolic clearance was calculated by dividing initial metabolic velocity by the test compound concentration in the incubation mixture.
# [2] = target: T1, human orexin type 2 receptor (Homo sapiens, UniProt O43614); test: Measurement of orexin type 2 receptor agonist activity (calcium fluorescence, CHO cells expressing hOX2R); format: cell-based; settings: test compound 3 μM; CHO cells expressing human OX2 receptor; DMSO = 0%, orexin A (human) = 100%
# T1 construct: human orexin type 2 receptor cDNA was inserted into pcDNA3.1(+) plasmid vector (Invitrogen); expressed in transfected cells
# T1 sequence (O43614 1-444): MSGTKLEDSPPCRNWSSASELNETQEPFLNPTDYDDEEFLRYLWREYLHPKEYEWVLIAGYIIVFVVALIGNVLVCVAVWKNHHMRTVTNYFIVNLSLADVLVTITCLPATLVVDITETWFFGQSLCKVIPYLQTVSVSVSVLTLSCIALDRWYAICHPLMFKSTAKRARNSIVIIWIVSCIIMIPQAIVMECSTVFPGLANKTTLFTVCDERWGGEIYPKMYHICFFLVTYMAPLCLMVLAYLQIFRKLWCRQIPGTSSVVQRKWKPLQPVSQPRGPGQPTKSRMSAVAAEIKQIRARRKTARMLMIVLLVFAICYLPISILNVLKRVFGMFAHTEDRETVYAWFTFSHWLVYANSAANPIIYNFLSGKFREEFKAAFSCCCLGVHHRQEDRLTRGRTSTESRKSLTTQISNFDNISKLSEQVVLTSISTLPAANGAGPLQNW
# Summary of the method: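 CHO-dhfr cells stably expressing hOX2R, loaded with Fluo-4 AM in HBSS/20 mM HEPES/0.1% BSA with probenecid, then given test compound. Calcium fluorescence was read for about 2 min 40 sec. Activity (%) was scaled between DMSO (0%) and 10 nM final human orexin A (100%).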
compound,measurement,setting,value
"CCS(=O)(=O)N[C@H]1CCN(C(=O)C(C)(C)O)[C@H]1Cc1cccc(-c2cc(F)cc(F)c2)c1F [Example 484, N-((2S,3S)-1-(2-hydroxy-2-methyl-propanoyl)-2-((2,3′,5′-trifluorobi-phenyl-3-yl)methyl)pyrrolidin-3-yl)ethanesulfonamide]",Wakefulness time (% of vehicle treatment),cynomolgus monkeys,492.32 % of vehicle treatment
same,microsomal CLint at 1 μmol/L,[1],23 µL/min/mg
same,"OX2R agonist activity (3 μM, %)",[2],112%
